pIC50: −log10 of the molar value.
test system: MM.1S cells; test: In vitro cytotoxic potency in MM.1S cell viability assay (CellTiter-Glo); assay type: cell-based, human; conditions: 72 h, CellTiter-Glo 2.0; read-out: MM.1S IC50
Experimental: Methods: MM.1S Cells were cultivated in RPMI medium 1640 (IX) supplemented with 10 μg/μL penicillin/streptomycin, 10% heat inactivated FBS, 0.1 mM Sodium Pyruvate, 1×MEM NEAA (ThermoFisher) and 1 mM HEPES. Cells were grown to reach log phase before being exposed to the test compounds.
(§1) Test compounds (Example compounds 1 to 36, 38 to 41 and 45 to 48) and comparative compounds (bendamustine, busulfan, melphalan, chlorambucil and 4-hydroperoxy cyclophosphamide) were dissolved in 100% DMSO and added to a 384 assay plate. Additional DMSO was added to maintain the same final DMSO concentration (0.2%) in all wells. 25 μL cell suspension with a concentration of 100000 cells/mL was added to each well. The cells were cultured in a CO2 incubator at 37° C. for 72 h. Plates were equilibrated to room temperature for 30 minutes before adding 20 μL CellTiter-Glo® 2.0 (Promega) reagent to all wells. The plate was then allowed to stabilize for 20 minutes before recording the luminescence (emission filter 700 nm) in an Envision plate reader.
All cells were cultivated in RPMI medium 1640 (IX). All media was supplemented with 10 μg/μl penicillin/streptomycin, 10% heat inactivated FBS, 0.1 mM Sodium Pyruvate, 1×MEM NEAA (ThermoFisher) and 1 mM HEPES. The DERL-2 cells had higher FBS (20%) and 40 ng/mL IL-2 was added. hPBMCs were thawed and allowed to acclimatise overnight and then stimulated with 10 μg/mL PHA-M and 40 ng/mL IL-2 for 4 hours before being exposed to test compounds. All cells, except for hPBMCs, were grown to reach log phase before being exposed to the test compounds.
as §1, with “compounds” for “compounds (Example compounds 1 to 36, 38 to 41 and 45 to 48) and comparative compounds (bendamustine, busulfan, melphalan, chlorambucil and 4-hydroperoxy cyclophosphamide)”, “(Em” for “(emission”

First: O=P1(N(CCCl)CCCl)NC(OO)CCO1 (centres unmarked) [4-hydroperoxy cyclophosphamide, reference compound]
Second: COCC(C)OC(=O)[C@H](CC(C)C)NC(=O)[C@@H](N)CCc1nc2cc(N(CCCl)CCCl)ccc2n1C (stereo partly drawn) [Example 29, (2-Methoxy-1-methyl-ethyl) (2S)-2-[[(2S)-2-amino-4-[5-[bis(2-chloroethyl)amino]-1-methyl-benzimidazol-2-yl]butanoyl]amino]-4-methyl-pentanoate]
The pIC50 of the first is 3.71 log units lower: 5.14 for the first, 8.85 for the second.

same assay, conditions: Homo sapiens, MM1.S, 72 h, read-out: MM.1S IC50

First: O=C(O)CCCc1ccc(N(CCCl)CCCl)cc1 [Chlorambucil, chlorambucil, reference compound]
Second: Cn1c(C[C@H](N)C(=O)O)nc2cc(N(CCCl)CCCl)ccc21 [Example 17, (2S)-2-amino-3-[5-[bis(2-chloroethyl)amino]-1-methyl-benzimidazol-2-yl]propanoic acid]
The pIC50 of the first is 0.76 log units higher: 5.16 for the first, 4.40 for the second.

Going from `CCOC(=O)[C@@H](NC(=O)[C@@H](N)CCc1nc2cc(N(CCCl)CCCl)ccc2n1C)C(C)C` [Example 3, Ethyl (2S)-2-[[(2S)-2-amino-4-[5-[bis(2-chloroethyl)amino]-1-methyl-benzimidazol-2-yl]butanoyl]amino]-3-methyl-butanoate] to `CCOC(=O)[C@@H](NC(=O)[C@@H](N)Cc1nc2cc(N(CCCl)CCCl)ccc2n1C)C(C)C` [Example 6, Ethyl (2S)-2-[[(2S)-2-amino-3-[5-[bis(2-chloroethyl)amino]-1-methyl-benzimidazol-2-yl]propanoyl]amino]-3-methyl-butanoate], the pIC50 falls from 8.17 to 7.01 (1.16 log units). The first is the more potent here.

`CCOC(=O)[C@H](CC(C)C)NC(=O)[C@@H](N)Cc1nc2cc(N(CCCl)CCCl)ccc2n1C` [Example 4, Ethyl (2S)-2-[[(2S)-2-amino-3-[5-[bis(2-chloroethyl)amino]-1-methyl-benzimidazol-2-yl]propanoyl]amino]-4-methyl-pentanoate] and `COC(=O)[C@H](CC(C)C)NC(=O)[C@@H](N)Cc1nc2cc(N(CCCl)CCCl)ccc2n1C` [Example 14, Methyl (2S)-2-[[(2S)-2-amino-3-[5-[bis(2-chloroethyl)amino]-1-methyl-benzimidazol-2-yl]propanoyl]amino]-4-methyl-pentanoate] are within 0.2 log units of each other in pIC50: 8.18 for the first, 8.06 for the second.

`CCOC(=O)[C@H](Cc1ccc(F)cc1)NC(=O)[C@@H](N)Cc1nc2cc(N(CCCl)CCCl)ccc2n1C` [Example 5, Ethyl (2S)-2-[[(2S)-2-amino-3-[5-[bis(2-chloroethyl)amino]-1-methyl-benzimidazol-2-yl]propanoyl]amino]-3-(4-fluorophenyl)propanoate] and `CCOC(=O)[C@H](Cc1nc2cc(N(CCCl)CCCl)ccc2n1C)NC(=O)[C@@H](N)Cc1ccc(F)cc1` [Example 11, Ethyl (2S)-2-[[(2S)-2-amino-3-(4-fluorophenyl)propanoyl]amino]-3-[5-[bis(2-chloroethyl)amino]-1-methyl-benzimidazol-2-yl]propanoate] are within 0.2 log units of each other in pIC50: 7.65 for the first, 7.83 for the second.

`CCOC(=O)[C@H](CCc1nc2cc(N(CCCl)CCCl)ccc2n1C)NC(=O)[C@@H](N)CC(C)C` [Example 7, Ethyl (2S)-2-[[(2S)-2-amino-4-methyl-pentanoyl]amino]-4-[5-[bis(2-chloroethyl)amino]-1-methyl-benzimidazol-2-yl]butanoate] and `CCOC(=O)[C@H](CCc1nc2cc(N(CCCl)CCCl)ccc2n1C)NC(=O)[C@@H](N)C(C)C` [Example 9, Ethyl (2S)-2-[[(2S)-2-amino-3-methyl-butanoyl]amino]-4-[5-[bis(2-chloroethyl)amino]-1-methyl-benzimidazol-2-yl]butanoate] are within 0.2 log units of each other in pIC50: 7.64 for the first, 7.65 for the second.

Compared with `CCOC(=O)[C@H](CCc1nc2cc(N(CCCl)CCCl)ccc2n1C)NC(=O)[C@@H](N)Cc1ccc(F)cc1` [Example 8, Ethyl (2S)-2-[[(2S)-2-amino-3-(4-fluorophenyl)propanoyl]amino]-4-[5-[bis(2-chloroethyl)amino]-1-methyl-benzimidazol-2-yl]butanoate], `CCOC(=O)[C@H](CCc1nc2cc(N(CCCl)CCCl)ccc2n1C)NC(=O)[C@H](CC(C)C)NC(=O)[C@@H](N)Cc1ccc(F)cc1` [Example 16, Ethyl (2S)-2-[[(2S)-2-[[(2S)-2-amino-3-(4-fluorophenyl)propanoyl]amino]-4-methyl-pentanoyl]amino]-4-[5-[bis(2-chloroethyl)amino]-1-methyl-benzimidazol-2-yl]butanoate] is 0.24 log units lower in pIC50: 7.84 for the first, 7.60 for the second.

`CCOC(=O)[C@H](Cc1nc2cc(N(CCCl)CCCl)ccc2n1C)NC(=O)[C@@H](N)C(C)C` [Example 12, Ethyl (2S)-2-[[(2S)-2-amino-3-methyl-butanoyl]amino]-3-[5-[bis(2-chloroethyl)amino]-1-methyl-benzimidazol-2-yl]propanoate] and `CC(C)C[C@H](NC(=O)[C@@H](N)Cc1nc2cc(N(CCCl)CCCl)ccc2n1C)C(=O)OC(C)C` [Example 15, Isopropyl (2S)-2-[[(2S)-2-amino-3-[5-[bis(2-chloroethyl)amino]-1-methyl-benzimidazol-2-yl]propanoyl]amino]-4-methyl-pentanoate] are within 0.2 log units of each other in pIC50: 7.90 for the first, 8.04 for the second.

Going from `CC(C)[C@H](NC(=O)[C@@H](N)CCc1nc2cc(N(CCCl)CCCl)ccc2n1C)C(=O)O` [Example 19, (2S)-2-[[(2S)-2-amino-4-[5-[bis(2-chloroethyl)amino]-1-methyl-benzimidazol-2-yl]butanoyl]amino]-3-methyl-butanoic acid] to `COC(=O)[C@H](CC(C)C)NC(=O)[C@@H](N)CCc1nc2cc(N(CCCl)CCCl)ccc2n1C` [Example 27, Methyl (2S)-2-[[(2S)-2-amino-4-[5-[bis(2-chloroethyl)amino]-1-methyl-benzimidazol-2-yl]butanoyl]amino]-4-methyl-pentanoate], the pIC50 rises from 5.40 to 8.09 (2.69 log units). The second is the more potent here.

`CCOC(=O)[C@H](CCc1nc2cc(N(CCCl)CCCl)ccc2n1C)NC(=O)[C@@H](CC(C)C)NC(=O)[C@@H](N)Cc1ccc(F)cc1` [Example 21, Ethyl (2S)-2-[[(2R)-2-[[(2S)-2-amino-3-(4-fluorophenyl)propanoyl]amino]-4-methyl-pentanoyl]amino]-4-[5-[bis(2-chloroethyl)amino]-1-methyl-benzimidazol-2-yl]butanoate] and `CCOC(=O)[C@H](Cc1ccc(F)cc1)NC(=O)[C@H](CC(C)C)NC(=O)[C@@H](N)CCc1nc2cc(N(CCCl)CCCl)ccc2n1C` [Example 22, Ethyl (2S)-2-[[(2S)-2-[[(2S)-2-amino-4-[5-[bis(2-chloroethyl)amino]-1-methyl-benzimidazol-2-yl]butanoyl]amino]-4-methyl-pentanoyl]amino]-3-(4-fluorophenyl)propanoate] are within 0.2 log units of each other in pIC50: 7.58 for the first, 7.50 for the second.

First: CCOC(=O)[C@H](CC(C)C)NC(=O)[C@H](CC(C)C)NC(=O)[C@@H](N)CCc1nc2cc(N(CCCl)CCCl)ccc2n1C [Example 23, Ethyl (2S)-2-[[(2S)-2-[[(2S)-2-amino-4-[5-[bis(2-chloroethyl)amino]-1-methyl-benzimidazol-2-yl]butanoyl]amino]-4-methyl-pentanoyl]amino]-4-methyl-pentanoate]
Second: CC(C)C[C@H](NC(=O)[C@@H](N)CCc1nc2cc(N(CCCl)CCCl)ccc2n1C)C(=O)OCCOC(C)C [Example 25, 2-Isopropoxyethyl (2S)-2-[[(2S)-2-amino-4-[5-[bis(2-chloroethyl)amino]-1-methyl-benzimidazol-2-yl]butanoyl]amino]-4-methyl-pentanoate]
The pIC50 of the first is 0.35 log units lower: 7.38 for the first, 7.73 for the second. The second is the more potent here.

Going from `CC(C)C[C@H](NC(=O)[C@@H](N)CCc1nc2cc(N(CCCl)CCCl)ccc2n1C)C(=O)OCCN1CCOCC1` [Example 24, 2-Morpholinoethyl (2S)-2-[[(2S)-2-amino-4-[5-[bis(2-chloroethyl)amino]-1-methyl-benzimidazol-2-yl]butanoyl]amino]-4-methyl-pentanoate] to `CC(C)C[C@H](NC(=O)[C@@H](N)CCc1nc2cc(N(CCCl)CCCl)ccc2n1C)C(=O)OCCCN(C)C` [Example 28, 3-(Dimethylamino)propyl (2S)-2-[[(2S)-2-amino-4-[5-[bis(2-chloroethyl)amino]-1-methyl-benzimidazol-2-yl]butanoyl]amino]-4-methyl-pentanoate], the pIC50 falls from 6.81 to 6.45 (0.36 log units).

With `CC(C)C[C@H](NC(=O)[C@@H](N)CCc1nc2cc(N(CCCl)CCCl)ccc2n1C)C(=O)OC(C)C` [Example 26, Isopropyl (2S)-2-[[(2S)-2-amino-4-[5-[bis(2-chloroethyl)amino]-1-methyl-benzimidazol-2-yl]butanoyl]amino]-4-methyl-pentanoate] the pIC50 was 8.17.

same assay, conditions: Homo sapiens, MM1.S; 72 h, CellTiter-Glo 2.0; read-out: MM.1S IC50

For `CS(=O)(=O)OCCCCOS(C)(=O)=O` [Busulfan, busulfan, reference compound], the pIC50 was 3.74.

From patent US20240316059A1, “PEPTIDE DRUG CONJUGATES” (Oncopeptides AB, priority 2021, published 2024)
